Experiments:
NKCCl = biological target: T1, NKCCl (Rattus norvegicus, UniProt E9PTX9); test: Gramicidin perforated patch recording of ECl and Cli in CA1 pyramidal cells of acute hippocampal slices; assay type: cell-based; conditions: 10 μM bumetanide
T1 construct: gramicidin perforated patch clamped CA1 pyramidal neuron in an acute hippocampal slice from a P5 rat; from tissue; host or cells: acute hippocampal slices of P3-P6 male Sprague-Dawley rats; CA1 pyramidal neurons
T1 sequence (E9PTX9 1-1203): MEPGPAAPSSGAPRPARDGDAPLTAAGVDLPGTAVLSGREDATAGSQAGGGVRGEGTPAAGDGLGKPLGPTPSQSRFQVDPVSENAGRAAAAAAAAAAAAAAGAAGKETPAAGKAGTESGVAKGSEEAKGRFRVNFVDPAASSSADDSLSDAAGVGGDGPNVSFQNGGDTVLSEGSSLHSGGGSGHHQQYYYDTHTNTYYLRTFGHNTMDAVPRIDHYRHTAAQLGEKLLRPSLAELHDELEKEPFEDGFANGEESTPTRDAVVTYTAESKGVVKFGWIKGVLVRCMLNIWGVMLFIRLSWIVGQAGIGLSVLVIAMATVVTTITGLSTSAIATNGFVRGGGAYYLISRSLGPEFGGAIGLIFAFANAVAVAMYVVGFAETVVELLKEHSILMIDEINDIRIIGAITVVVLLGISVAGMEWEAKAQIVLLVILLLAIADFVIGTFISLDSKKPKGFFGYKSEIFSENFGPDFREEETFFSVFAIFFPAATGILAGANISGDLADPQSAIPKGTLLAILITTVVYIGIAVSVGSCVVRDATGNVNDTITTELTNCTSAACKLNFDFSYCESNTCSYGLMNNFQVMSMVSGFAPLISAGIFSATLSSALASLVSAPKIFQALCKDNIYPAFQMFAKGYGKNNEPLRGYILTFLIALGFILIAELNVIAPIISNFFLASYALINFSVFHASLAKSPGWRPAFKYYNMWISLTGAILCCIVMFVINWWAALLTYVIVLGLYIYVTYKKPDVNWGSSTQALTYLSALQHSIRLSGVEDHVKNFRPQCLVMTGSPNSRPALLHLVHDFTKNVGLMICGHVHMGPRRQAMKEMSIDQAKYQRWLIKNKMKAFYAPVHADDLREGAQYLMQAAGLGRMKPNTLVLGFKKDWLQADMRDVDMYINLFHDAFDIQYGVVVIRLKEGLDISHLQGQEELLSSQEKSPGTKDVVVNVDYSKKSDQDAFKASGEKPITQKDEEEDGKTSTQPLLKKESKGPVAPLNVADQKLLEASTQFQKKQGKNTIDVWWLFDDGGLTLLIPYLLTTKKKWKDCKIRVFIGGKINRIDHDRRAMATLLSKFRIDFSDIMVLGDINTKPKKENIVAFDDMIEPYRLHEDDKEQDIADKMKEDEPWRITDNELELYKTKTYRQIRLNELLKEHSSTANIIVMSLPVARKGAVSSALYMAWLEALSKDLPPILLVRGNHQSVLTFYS

[1] = system: low-Mg^2+ induced recurrent seizures in the intact hippocampus; test: Low-Mg2+ ACSF induced recurrent seizures in the intact hippocampus in vitro; assay type: cell-based, rat; conditions: phenobarbital 100 μM, bumetanide 10 μM or both, 120 min application; intact hippocampus of P4-6 rats
Source text: High expression level of the Na^+ K^+-2Cl^− (NKCCl) co-transporter in immature neurons causes the accumulation of chloride ions and a depolarized Cl^− equilibrium potential (ECl). This is linked to a higher seizure propensity and poor EEG response in neonates to the barbiturates and benzodiazepines, conventional anticonvulsant drugs that target Cl^−-permeable GABAA-receptor (GABAA-R) operated channels. […] Recurrent ictal-like seizures were induced by low-Mg^+ ACSF in intact hippocampal preparations in vitro. […] Bumetanide decreased both seizure frequency and seizure power.
FIGS. 11A-11C are graphs of low-Mg^2+πinduced recurrent seizures in the intact hippocampus in vitro. […] First and last seizures from 5 hour recording are shown on an expanded time scale. Right, corresponding power spectra in the 0.1-1000 Hz frequency band. […] Summary data are taken from ten hippocampi. […] Power of the first seizure in each recording was considered as 100%. Data are taken from 18 recordings in 10 preparations from P4-6 rats.
FIGS. 12A-12C are graphs showing low efficiency of phenobarbital in neonatal seizures. FIG. 12A is a graph showing extracellular field potential recording in the CA3 pyramidal cell layer in the intact hippocampus of a P5 rat. Continuous application of low-Mg^2+ ACSF induced recurrent tonic-clonic seizures. […] The right portion corresponds to power spectra in the 0.1-1000 Hz frequency range. […] Data are from ten experiments that were combined. FIG. 12C is a graph showing power of recurrent seizures before, during and after phenobarbital application. Power of the first seizure in each recording was considered as 100%. Seizures were not depressed by phenobarbital indicating its low efficiency.
FIGS. 13A-13C are graphs showing that alteration of Cl^−-transport by bumetanide enhanced efficacy of phenobarbital in neonatal seizures. FIG. 13A is a graph of extracellular field potential recording in the CA3 pyramidal cell layer in the intact hippocampus of a P5 rat. Application of low-Mg^2+ ACSF induced recurrent seizures. […] These are shown on an expanded time scale. The right portion of FIG. 13A is a power spectra of extracellular field potential activity before and during application of drugs. FIG. 13B is a graph showing inter-seizure intervals before, during and after application of drugs. In 75% of experiments seizures were abolished (ISI>120 min) by simultaneous application of phenobarbital and bumetanide. FIG. 13C is a graph showing power of recurrent seizures before, during and after simultaneous application of phenobarbital and bumetanide. Power of the first seizure in each recording was considered as 100%. Seizures were depressed by combination of drugs.
FIGS. 14A and 14B are graphs showing alteration of Cl^−-transport for early-life seizure therapy. […]

Q: With `CCCCNc1cc(C(=O)O)cc(S(N)(=O)=O)c1Oc1ccccc1` [bumetanide, 3-(aminosulfonyl)-5-(butylamino)-4-phenoxybenzoic acid] as the molecule, how does the holding current (NKCCl) read?
A: no change

Q: What about the ECl (NKCCl; P4-6 CA1 pyramidal cells, n=9, control −67.34±3.78 mV) of the same molecule?
A: −80.14±4.61 mV

Q: What about the “lowering of Cli” value (NKCCl; n=9, P=0.0006) of the same molecule?
A: 37±0.05%

Q: And the Cli (NKCCl; n=9, control 12.00±1.47 mM)?
A: 7.62 ± 1.14 mM

Q: What about the seizure frequency [1] of the same molecule?
A: decreased

Q: What about the seizure power [1] of the same molecule?
A: decreased
